Measured values as given in patent publication US20260355168A1, “COMPOSITIONS AND METHODS FOR TREATING AND DETECTING CANCER” (CASE WESTERN RESERVE UNIVERSITY, priority 2022, published 2026).
Entries after “also recorded” stand apart in the source; their conditions may differ.

Assays:
PTPμ = PTPμ (Homo sapiens, UniProt P28827); experiment: PTPμ-dependent Sf9 aggregation assay; format: cell-based; details: 100 μM; 20 min pretreatment; in words
glioma cells = experiment: Glioma cell assays combined (scratch and sphere, several cell lines); format: cell-based, human; details: 100 μM; for Effect on glioma cells, overall: multiple assays and cell lines
Experimental: FIG. 2 illustrates a schematic of a functional screening approach. Seventy-four PTPμ wedge-targeted compounds and 2 blinded DMSO samples were received from Atomwise and screened at 100 μM in scratch wound healing assays using two glioma cell lines (LN229 and U87). Selected active and control compounds were taken into secondary assays (Gli36 scratch and LN229 and Gli36 sphere formation and growth assays). Inhibitors selected as being active in primary and secondary screens were tested for effects on the survival of LN229 and Sf9 cells, and selected glioma-cell inhibitors and activators were screened for effects on Sf9-PTPμ aggregation, a highly specific test for PTPμ function.
(§1) Cells were seeded at a density of 2.7×10^4 cells per well into the internal wells of Incuyte1 Imagelock 96-well plates (Essen BioScience Inc., Ann Arbor, MI) and cultured overnight to form monolayers. Monolayers were wounded with an IncuCyte1 96-well Woundmaker Tool per the manufacturer's instructions. The outer wells were filled with PBS to buffer edge effects, and then the wounded monolayers were cultured in 100 μl of fresh media with compounds or DMSO (2×replicates at 100 μM or 1%, respectively) at 37 °C and 5% CO2. Images were captured every 4 hrs. using an Incucyte live cell imaging system equipped with the Scratch Wound Module. Scratch wound widths were calculated, per the manufacturer's instructions, at TO and at endpoint (typically T12 for LN229 and U87 cells and T8 for Gli36), which was taken as the last timepoint before wound closure. The cell migration distance was calculated from scratch widths [(T0Width−TendpointWidth)/2] and normalized to the average distance migrated by the DMSO controls. Values are presented as average percentages±standard errors of the means (s.e.m.). The majority of compounds were screened with an n of two, but the n for priority hits ranges from 2-6.
(§2) Cells were seeded at a density of 7500 cells per well into the internal wells of 96-well plates coated with 0.75% (wt/vol) PVA as previously described. Compounds were added (2×replicates per treatment) at the indicated final concentrations, and control wells were treated with matching concentrations of DMSO. The external wells of the plates were filled with PBS to buffer against edge effects, and the cells were incubated at 37 °C and 5% CO2 for 7 days. A Leica CTR6500 microscope fitted with an automated stage was used to capture brightfield images on day 1 and day 7, and sphere footprint areas were measured using Image J (v1.52a http://imagej.nih.gov/ij) as previously described. To quantify the effects of the compounds on day 1, the footprint areas of the treated wells were normalized to the average area of the matched DMSO control wells. To quantify the effects of the compounds on sphere growth, the change in the sphere footprint areas was calculated ([…]) and then normalized to the average size change of the matched DMSO samples. All values are presented as average percentages±s.e.m.

LN229 cells [1] = experiment: LN229 scratch wound healing assay; format: cell-based, human; details: for activity at 100 µM: Homo sapiens, LN-229, normalized to DMSO controls, read-out: LN229 scratch wound closure relative to DMSO controls
From the text: FIGS. 3(A-D) illustrate a histogram and images of the LN229 scratch wound assays. A. Histogram showing the effects of all soluble wedge-targeted compounds on LN229 scratch wound closure. Cell movement into the scratches was quantified from scratch wound widths at the start and end of the assay and normalized to the average movement of cells in the unblinded DMSO control samples. Data is presented as average percentages±standard error of the means (s.e.m.), and compound bar codes are shown on the x-axis. The majority of compounds were screened with an n=2. Some priority compounds were screened with 3-6 replicates. Representative endpoint images of samples treated with DMSO (B) and two priority inhibitors (C and D) are shown. The relative migration distances for each example are indicated.
as §1
Scratch assays measure the ability of cells to migrate into a wound and close it creating a monolayer.

U87 cells = experiment: U87 scratch wound healing assay; format: cell-based, human; details: 100 μM
From the text: FIGS. 11(A-D) illustrate a histogram and images of the results of the U87 scratch wound assays. A. Histogram showing the effects of all soluble wedge pocket-targeting compounds on U87 scratch wound closure. Cell movement into the scratches was quantified from scratch wound widths at the start and end of the assay and normalized to the average movement of cells in the unblinded DMSO control samples. Data is presented as average percentages±s.e.m., and compound bar codes are shown on the x-axis. Most compounds were screened with an n of 2-4. Representative images of scratch wounds treated with DMSO (A) or two priority inhibitors (C and D) are shown.
as §1

LN229 cells [2] = experiment: LN229 glioma sphere formation and growth assay; format: cell-based, human; details: 100 μM, in words; for Effect on LN229 sphere formation: day 1; for Effect on LN229 sphere growth: day 7
Experimental: FIGS. 5(A-E) illustrate a histogram and images showing the results of the LN229 sphere formation and growth assays. Selected inhibitors, activators, and control compounds identified in LN229 and/or U87 scratch wound closure assays were retested at 100 μM in a secondary assay for glioma cell (LN229) sphere formation and growth. A. Histogram showing the effects of the indicated compounds on sphere formation. On day 1, sphere footprint areas were determined and normalized to the average footprint area of the unblinded vehicle-treated controls. On day 1, a larger footprint area indicates inhibition of aggregation. B. Histogram showing the effects of the indicated compounds on sphere growth. On day 7, the changes in sphere footprint areas were calculated and normalized to the average size change of the unblinded vehicle-treated controls. On day 7, a smaller value indicates reduced growth. […] Data is presented as percentages±s.e.m. of 2-4 replicates. Representative images of samples treated with DMSO (C) and two priority inhibitors (D and E) are shown. Relative day 1 footprint areas and day 7 growth measurements are indicated for each example.
FIGS. 15(A-D) illustrate a histogram and images of titration of selected compounds on LN229 sphere formation and growth. LN229 cells were plated onto non-adherent surfaces and treated with the indicated compounds at 100, 50, and 25 μM. A. On day 1, sphere footprint areas were determined and normalized to the average footprint area of the unblinded vehicle-treated controls. On day 1, a larger foot-print area indicates inhibition of aggregation. B. On day 7, the changes in sphere footprint areas were calculated and normalized to the average size change of the unblinded vehicle-treated controls. On day 7, a smaller value indicates reduced growth. […] Data is presented as percentages±s.e.m. The initial test at 100 μM and the follow-up at that dose with titration is shown. Each bar is the average of 2 replicates. Representative day 1 (C) and day 7 (D) images of samples treated with two priority inhibitors are shown. Relative day 1 sphere footprint areas and day 7 growth for each example are indicated.
as §2
We tested the effects of twenty-four compounds (11 flagged as inhibitory, 4 as stimulatory, and nine as inert in the initial scratch-wound screen, FIG. 2) on the ability of LN229 cells to mediate cell-cell adhesion and grow in 3D culture on non-adherent surfaces. To quantify sphere formation (FIG. 5A), the footprint areas of aggregates were measured on day 1 and normalized to that of the DMSO control. At this time point, a larger footprint size (>120%) indicates inhibition, i.e., the failure of cells to form a compact aggregate. To quantify sphere growth (FIG. 5B), we calculated the percent changes in sphere footprint areas between day 1 and day 7 and normalized them to that of the DMSO controls.

LN229 cells [3] = experiment: Helix Blue staining of LN229 spheres (cell survival); format: cell-based, human; details: 100 μM, 24 h, qualitative
Experimental: (§3) FIG. 17 illustrates images showing the effects of prioritized inhibitors on cell survival. LN229 cells were plated onto non-adherent surfaces and cultured in the presence of the indicated compounds (100 μM). On day 1, spheres were stained with Helix Blue to detect dying cells. Parental Sf9 cells (which lack PTPμ) plated onto tissue culture plastic were also grown in the presence of the indicated compounds and, on day 1, stained with Helix Blue. Three compounds appeared to cause a qualitative increase in staining in LN229 spheres. No compound was toxic to Sf9 cells.
(§4) LN229 cells, plated onto non-adherent surfaces as described above, and parental Sf9 cells (without PTPμ), seeded into 96-well flat bottom tissue culture plates, were treated for 24 h with the indicated compounds (100 μM). The cells and spheres were then treated with 5.5 μM Helix Blue (Biolegend, San Diego, CA) and imaged at 10× on a Leica CTR6500 fluorescence microscope.
(§5) The seven penetrant inhibitors were tested to see if they affected the survival of LN229 spheres and parental Sf9 cells (which lack PTPμ) (FIG. 17).

parental Sf9 cells = experiment: Helix Blue staining of parental Sf9 cells (cell survival); format: cell-based, insect; details: 100 μM, 24 h, cells lack PTPμ
Experimental: as §3, §4, §5

PTPμ, sequence (P28827 21-1452): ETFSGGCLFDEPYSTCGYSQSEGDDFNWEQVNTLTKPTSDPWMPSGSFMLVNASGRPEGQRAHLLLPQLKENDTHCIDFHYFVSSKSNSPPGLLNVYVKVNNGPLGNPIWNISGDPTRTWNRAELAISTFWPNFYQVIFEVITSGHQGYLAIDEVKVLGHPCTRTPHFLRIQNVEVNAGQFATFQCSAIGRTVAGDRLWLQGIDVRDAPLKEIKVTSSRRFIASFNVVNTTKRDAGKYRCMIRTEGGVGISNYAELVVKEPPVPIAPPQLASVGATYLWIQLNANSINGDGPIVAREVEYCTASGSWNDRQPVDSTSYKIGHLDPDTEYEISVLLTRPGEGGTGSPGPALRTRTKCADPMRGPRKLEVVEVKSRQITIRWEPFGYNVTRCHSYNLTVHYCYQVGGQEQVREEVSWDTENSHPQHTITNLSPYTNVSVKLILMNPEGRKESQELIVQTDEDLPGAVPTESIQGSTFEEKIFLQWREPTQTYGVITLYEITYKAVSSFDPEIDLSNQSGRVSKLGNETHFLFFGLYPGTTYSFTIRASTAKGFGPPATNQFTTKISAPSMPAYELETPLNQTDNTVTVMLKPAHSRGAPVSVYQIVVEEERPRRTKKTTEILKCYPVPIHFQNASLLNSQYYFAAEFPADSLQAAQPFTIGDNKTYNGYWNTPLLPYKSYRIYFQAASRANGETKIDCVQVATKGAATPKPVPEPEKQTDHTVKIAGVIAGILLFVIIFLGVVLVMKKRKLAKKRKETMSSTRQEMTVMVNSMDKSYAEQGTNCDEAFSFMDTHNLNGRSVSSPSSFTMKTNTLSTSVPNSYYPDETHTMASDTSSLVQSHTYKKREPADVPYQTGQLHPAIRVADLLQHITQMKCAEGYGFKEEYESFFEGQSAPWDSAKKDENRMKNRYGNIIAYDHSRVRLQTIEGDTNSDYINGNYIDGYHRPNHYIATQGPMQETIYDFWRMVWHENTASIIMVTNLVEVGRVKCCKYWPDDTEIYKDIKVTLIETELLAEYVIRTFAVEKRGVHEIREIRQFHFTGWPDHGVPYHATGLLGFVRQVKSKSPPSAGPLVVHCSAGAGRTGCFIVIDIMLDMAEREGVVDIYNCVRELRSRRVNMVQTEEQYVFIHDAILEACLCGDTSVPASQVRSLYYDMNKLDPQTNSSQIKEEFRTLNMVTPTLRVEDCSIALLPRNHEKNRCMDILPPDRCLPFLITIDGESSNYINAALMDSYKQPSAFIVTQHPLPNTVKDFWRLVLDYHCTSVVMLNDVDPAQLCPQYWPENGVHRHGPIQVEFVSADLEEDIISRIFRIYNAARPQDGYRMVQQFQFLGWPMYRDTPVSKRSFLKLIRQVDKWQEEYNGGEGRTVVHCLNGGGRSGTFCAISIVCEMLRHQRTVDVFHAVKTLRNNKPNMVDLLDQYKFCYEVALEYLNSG

Cc1cccc(-c2ccc3c(c2)C(=O)N2CCC(NC(=O)COCC(=O)O)C2C(=O)N3)c1C (centres unmarked) [Compound 247685429]
Effect on PTPμ-dependent Sf9 aggregation / adhesion (PTPμ): able to inhibit PTPμ-dependent adhesion; also recorded: able to inhibit PTPμ-mediated aggregation
Effect on glioma cells, overall (glioma cells): did not affect glioma cells

CCC1(CC)NC(=O)N(CC(=O)Nc2ccc(Oc3ccccc3)cc2)C1=O [Compound 247682206]
activity at 100 µM (LN229 cells [1]): < 60%
Effect on U87 cell morphology in scratch assay (U87 cells): pile-up of U87 cells at the edge of the scratch wound
Effect on LN229 sphere formation (LN229 cells [2]): delayed sphere formation
Effect on LN229 sphere growth (LN229 cells [2]): inhibited growth
Effect on PTPμ-dependent Sf9 aggregation / adhesion (PTPμ): PTPμ-dependent adhesion; also recorded: affect PTPμ-mediated aggregation
Effect on glioma cells, overall (glioma cells): highly penetrant inhibitors; also recorded: able to inhibit glioma cells
Effect on glioma cell migration (glioma cells; scratch assays): able to inhibit glioma cell migration

CC(C)COc1ccc(C(=O)N2CCNC(=O)C2CC(=O)OC2CCCCC2)cc1 (centres unmarked) [Compound 247682240]
activity at 100 µM (LN229 cells [1]): < 60%
Effect on U87 cell morphology in scratch assay (U87 cells): pile-up of U87 cells at the edge of the scratch wound
Effect on LN229 sphere formation (LN229 cells [2]): delayed sphere formation
Effect on LN229 sphere growth (LN229 cells [2]): inhibited growth
Effect on PTPμ-dependent Sf9 aggregation / adhesion (PTPμ): not shown to affect PTPμ-mediated aggregation
Effect on glioma cells, overall (glioma cells): highly penetrant inhibitors

O=C1NC2(CCCC2)C(=O)N1CC(=O)N(Cc1cccs1)c1ccc2c(c1)OCCO2 [Compound 247679515]
Effect on LN229 cell morphology in scratch assay (LN229 cells [1]; 100 μM): rounding
activity at 100 µM (LN229 cells [1]): < 60%
Effect on LN229 sphere formation (LN229 cells [2]): completely blocked sphere formation
Effect on PTPμ-dependent Sf9 aggregation / adhesion (PTPμ): not shown to affect PTPμ-mediated aggregation; also recorded: did not affect PTPμ-dependent adhesion
Effect on glioma cells, overall (glioma cells): highly penetrant inhibitors in glioma cell assays

COc1ccccc1CNC(=O)CC(NC(N)=O)c1cccc(Oc2ccccc2)c1 (centres unmarked) [Compound 247679045]
activity at 100 µM (LN229 cells [1]): < 60%
Effect on LN229 sphere formation (LN229 cells [2]): completely blocked sphere formation
Effect on LN229 cell survival / cell death (LN229 cells [3]): caused a qualitative increase in LN229-cell death
Effect on parental Sf9 cell survival (parental Sf9 cells): did not affect parental Sf9 cells
Effect on PTPμ-dependent Sf9 aggregation / adhesion (PTPμ): not shown to affect PTPμ-mediated aggregation; also recorded: did not affect PTPμ-dependent adhesion
Effect on glioma cells, overall (glioma cells): highly penetrant inhibitors in glioma cell assays
